Source: patent US20120295838A1, “Selective poly-substituted glycine antibiotics and related compositions” (priority 2008, published 2012)
Numbered stars: 1 amine (or outer) side, 2 acyl side, 3 side chain; on linkers, the order of the positions; unused ones are H or OH. Square brackets hold non-standard residues; d marks the D form. Peptide text beside a SMILES is read from it. X1 = CC(C)[C@H](C)N(CC(=O)[*:2])[*:1]; Nspe = C[C@H](NCC(=O)O)c1ccccc1; Nlys = NCCCCNCC(=O)O

Tests used:
human erythrocytes = test: Hemolysis assay; type: cell-based
Procedure: (§1) Hemolysis assays. Erythrocytes were isolated from freshly drawn, heparanized human blood and resuspended to 20 vol % in PBS (pH 7.4). In a 96-well microtiter plate, 100 μL erythrocyte suspension was added to 100 uL peptoid solution in PBS (prepared by 1:2 serial dilutions), or 100 μL PBS in the case of negative controls. 100% hemolysis wells contained 100 μL, blood cell suspension with 100 μL 0.2 vol % Triton X-100. The plate was incubated for 1 h at 37° C., then each well was diluted with 1504 PBS. The plate was then centrifuged at 1200 g for 15 min, 100 μL of the supernatant from each well transferred to a fresh microtiter plate, and A350 measured.
Hemolysis assays. Erythrocytes were isolated from freshly drawn, heparanized human blood and resuspended in PBS (pH 7.4) to make a 20% volume suspension. Peptoid solutions were prepared by serial dilution (2:1) in a 96-well microtiter plate. For test wells, 100 μLL of erythrocyte suspension was added to 100 μL of peptoid solution in PBS; PBS without peptoid was used as the negative control and 0.2 vol % Triton X-100 as the positive control that indicates 100% hemolysis. After 1 hour incubation at 37° C., each well was diluted with 150 μL PBS. Plates were then centrifuged at 1,200×g for 15 minutes to pellet the cells. 30 μL of the supernatant from each well were transferred to the corresponding well of a second 96-well plate that contains 70 μL PBS.
as §1, with “assays for Compositions.” for “assays.”, “100” for “100 uL”, “μL” for “μL,”, “150 μL” for “1504”, “1200g” for “1200 g”

E. coli ATCC 35218 = type: cell-based; conditions: ATCC 35218
Procedure: (§2) Whereas the preceding generation of molecules was designed to elucidate structure function relationships of specific molecular parameters (chirality, length, hydrophobicity, etc.), another generation compounds were designed explicitly to explore effects on selectivity. Antimicrobial activity of these compounds was tested against bacterial strains E. coli (ATTC 35218) and B. subtilis (ATTC 6633) in cation-adjusted MHB using the microdilution protocols previously described. The sequences, antimicrobial activities, hemolytic activities, and metabolic inhibitory concentrations against NIH 3T3 mouse fibroblast cells are summarized in Table 3 and the rationale of their design is described below.
(§3) Screening antibacterial assays. MICs were determined in 96-well microtiter plates in accordance with CLSI M7-A6 protocols. Peptoid solutions with 50 μL total volume were prepared using 2:1 serial dilutions. 50 i—tL of bacteria inoculum (1×10^6 CFU/mL) prepared in cation-adjusted Mueller-Hinton broth (CAMHB) was added to test wells. Control wells contained 100 μL MHB (no growth) or 50 μL inoculums with 50 μL MHB with no peptoid. […] Reported values were reproducible over three experiments, each containing two parallel trials.
(§4) Antibacterial Assays for Compositions. MICs were determined according to CLSI M7-A6 protocols in a 96-well microtiter plate. In test wells, 50 μL bacterial inoculum (1×10^6 CFU/ml) in cation-adjusted Mueller-Hinton broth (CAMHB) was added to 50 μL peptoid solution in CAMHB (prepared by 1:2 serial dilutions). Positive controls contained 50 μL inoculum and 50 μL CAMHB without peptoid. […] MIC values reported were reproducible between three independent experimental replicates, each consisting of two parallel trials.

MTS assay, NIH 3T3 cells = type: cell-based, mouse; conditions: mouse, NIH 3T3 fibroblast cells
Procedure: The potencies of all compounds were determined against representative Gram-negative (E. coli ATCC 35218) and Gram-positive (B. subtilis ATCC 6633) biosafety level 1 (BSL1) organisms. In addition to hemolytic activity, the conventional measure of toxicity to mammalian cells, the effect of each ampetoid on NIH 3T3 mouse fibroblast cells was determined using the MTS tetrazolium salt-based colorimetric assay. While hemolysis measures the degree to which erythrocytes are lysed, the MTS assay indirectly quantifies the extent to which cellular metabolic activity is inhibited.
MTS assays. NIH/3T3 cells (ATCC Corporation) cultured at 37° C. and 5% CO2 in complete Dulbecco's modified eagle's media (CDMEM) supplemented with 1% sodium pyruvate, 1% penicillin-streptomycin, 1.5 g/L NaHCO3, and 10% fetal bovine serum. Cells were seeded at a density of 5,000 cells per well for NIH/3T3 cells in 96-well plates (100 μl total volume). A peptoid solution plate (100 μL total volume per well) was prepared by serial dilution of aqueous peptoid stock solution in Hank's balanced salt solution (HBSS) media. The day-old cell monolayers were washed with HBSS and media was replaced with 100 μL HBSS. The contents of the peptoid solution plate were transferred onto corresponding wells of the cell monolayer plate, and 40 μL MTS reagent (Promega, Inc.) was added to each well. After incubating for 3 hours at 37° C., absorbance at 490 nm was determined. […] The average of six replicates is reported.

B. subtilis ATCC 6633 = type: cell-based; conditions: ATCC 6633
Procedure: as §2, §3, §4

Row | SMILES | HD10 (human erythrocytes) [µM] | E. coli MIC (E. coli ATCC 35218) [µM] | CC50 at 3 h (MTS assay, NIH 3T3 cells) [µM] | HD50 (human erythrocytes) [µM] | HD10 (10% hemolytic dose) (human erythrocytes; red cells of human, 1 h) [µM] | HD50 (50% hemolytic dose) (human erythrocytes; red cells of human, 1 h) [µM] | MIC for B. subtilis ATCC 6633 (B. subtilis ATCC 6633) [µM] | MIC for E. coli ATCC 35218 (E. coli ATCC 35218) [µM]
1 | C[C@H](NCC(=O)N(CC(=O)N(CCCCN)CC(=O)N(CC(=O)N(CC(=O)N(CCCCN)CC(=O)N(CC(=O)N(CC(=O)N(CCCCN)CC(=O)N(CC(=O)N(CC(=O)N(CCCCN)CC(N)=O)[C@@H](C)c1ccccc1)[C@@H](C)c1ccccc1)[C@@H](C)c1ccccc1)[C@@H](C)c1ccccc1)[C@@H](C)c1ccccc1)[C@@H](C)c1ccccc1)[C@@H](C)c1ccccc1)c1ccccc1 [1C, H-(Nspe-Nspe-Nlys)4-NH2] (H-[Nspe][Nspe][Nlys][Nspe][Nspe][Nlys][Nspe][Nspe][Nlys][Nspe][Nspe][Nlys]-NH2) | 25 | 6.3 | 5.6 | – | – | – | – | –
2 | CC(C)[C@H](C)N(CC(=O)N(CCCCN)CC(=O)N(CC(=O)N(CC(=O)N(CCCCN)CC(=O)N(CC(=O)N(CC(=O)N(CCCCN)CC(=O)N(CC(=O)N(CC(N)=O)[C@@H](C)c1ccccc1)[C@@H](C)c1ccccc1)[C@@H](C)C(C)C)[C@@H](C)C(C)C)[C@@H](C)c1ccccc1)[C@@H](C)c1ccccc1)C(=O)CN(C(=O)CNCCCCN)[C@@H](C)C(C)C [1-Nsdp2,3,8,9, H-(Nlys-Nsdp-Nsdp-Nlys-Nspe-Nspe)2-NH2] (H-[Nlys][X1][X1][Nlys][Nspe][Nspe][Nlys][X1][X1][Nlys][Nspe][Nspe]-NH2) | – | 12.5 | 19 | – | – | – | – | –
3 | C[C@@H](c1ccc2ccccc2c1)N(CC(N)=O)C(=O)CN(C(=O)CN(CCCCN)C(=O)CN(C(=O)CN(C(=O)CN(CCCCN)C(=O)CN(C(=O)CN(C(=O)CN(CCCCN)C(=O)CN(C(=O)CN(C(=O)CNCCCCN)[C@@H](C)c1ccccc1)[C@@H](C)c1ccccc1)[C@@H](C)c1ccccc1)[C@@H](C)c1ccc2ccccc2c1)[C@@H](C)c1ccccc1)[C@@H](C)c1ccccc1)[C@@H](C)c1ccccc1 [1-Nsna6,12, H-(Nlys-Nspe-Nspe-Nlys-Nspe-Nsna)2-NH2] | 7 | – | – | 27 | 4 | 22 | 0.78 to 1.6 | 25 to 50
4 | C[C@@H](c1ccccc1)N(CC(=O)N(CCCCN)CC(=O)N(CC(=O)N(CC(=O)N(CCCCN)CC(=O)N(CC(=O)N(CC(=O)N(CCCCN)CC(N)=O)[C@@H](C)c1ccccc1)[C@@H](C)c1ccccc1)[C@@H](C)c1ccccc1)[C@@H](C)c1ccccc1)C(=O)CN(C(=O)CNCCCCN)[C@@H](C)c1ccccc1 [110 mer, H-(Nlys-Nspe-Nspe)3-Nlys-NH2] (H-[Nlys][Nspe][Nspe][Nlys][Nspe][Nspe][Nlys][Nspe][Nspe][Nlys]-NH2) | > 200 | 12.5 | 54 | – | – | – | – | –
5 | C[C@@H](c1ccccc1)N(CC(N)=O)C(=O)CN(CCCCN)C(=O)CN(C(=O)CN(C(=O)CN(CCCCN)C(=O)CN(C(=O)CN(C(=O)CN(CCCCN)C(=O)CN(C(=O)CN(C(=O)CNCCCCN)[C@@H](C)c1ccccc1)[C@@H](C)c1ccccc1)[C@@H](C)c1ccccc1)[C@@H](C)c1ccccc1)[C@@H](C)c1ccccc1)[C@@H](C)c1ccccc1 [111 mer, H-(Nlys-Nspe-Nspe)3-Nlys-Nspe-NH2] (H-[Nlys][Nspe][Nspe][Nlys][Nspe][Nspe][Nlys][Nspe][Nspe][Nlys][Nspe]-NH2) | – | 6.3 | 11 | – | – | – | – | –
6 | C[C@H](NCC(=O)N(CCCCN)CC(=O)N(CC(=O)N(CC(=O)N(CCCCN)CC(=O)N(CC(=O)N(CC(=O)N(CCCCN)CC(=O)N(CC(=O)N(CC(=O)N(CCCCN)CC(=O)N(CC(N)=O)[C@@H](C)c1ccccc1)[C@@H](C)c1ccccc1)[C@@H](C)c1ccccc1)[C@@H](C)c1ccccc1)[C@@H](C)c1ccccc1)[C@@H](C)c1ccccc1)[C@@H](C)c1ccccc1)c1ccccc1 [1B, H-(Nspe-Nlys-Nspe)4-NH2] (H-[Nspe][Nlys][Nspe][Nspe][Nlys][Nspe][Nspe][Nlys][Nspe][Nspe][Nlys][Nspe]-NH2) | 55 | 6.3 | 4.9 | – | – | – | – | –
7 | C[C@H](NCC(=O)N(CC(=O)N(CCCCN)CC(=O)N(CC(=O)N(CCCCN)CC(=O)N(CC(=O)N(CCCCN)CC(=O)N(CC(=O)N(CC(=O)N(CC(=O)N(CC(=O)N(CCCCN)CC(N)=O)[C@@H](C)c1ccccc1)[C@@H](C)c1ccccc1)[C@@H](C)c1ccccc1)[C@@H](C)c1ccccc1)[C@@H](C)c1ccccc1)[C@@H](C)c1ccccc1)[C@@H](C)c1ccccc1)c1ccccc1 [1scr, H-(Nspe)2-(Nlys-Nspe)3-(Nspe)3-Nlys-NH2] (H-[Nspe][Nspe][Nlys][Nspe][Nlys][Nspe][Nlys][Nspe][Nspe][Nspe][Nspe][Nlys]-NH2) | 64 | 6.3 | 8.5 | – | – | – | – | –
8 | C[C@H](NCC(=O)N(CCCCN)CC(=O)N(CC(=O)N(CCCCN)CC(=O)N(CCCCN)CC(=O)N(CC(=O)N(CC(=O)N(CCCCN)CC(=O)N(CC(=O)N(CCCCN)CC(=O)N(CCCCN)CC(=O)N(CC(=O)N(CC(=O)N(CCCCN)CC(=O)N(CC(N)=O)[C@@H](C)c1ccccc1)[C@@H](C)c1ccccc1)[C@@H](C)c1ccccc1)[C@@H](C)c1ccccc1)[C@@H](C)c1ccccc1)[C@@H](C)c1ccccc1)[C@@H](C)c1ccccc1)c1ccccc1 [1B15 mer-Nlys4,10, H-(Nspe-Nlys-Nspe-Nlys-Nlys-Nspe)2-Nspe-Nlys-Nspe-NH2] (H-[Nspe][Nlys][Nspe][Nlys][Nlys][Nspe][Nspe][Nlys][Nspe][Nlys][Nlys][Nspe][Nspe][Nlys][Nspe]-NH2) | – | 50 | 16 | – | – | – | – | –
9 | C[C@H](NCC(=O)N(CCCCN)CC(=O)N(CC(=O)N(CCCCN)CC(=O)N(CCCCN)CC(=O)N(CC(=O)N(CC(=O)N(CCCCN)CC(=O)N(CC(=O)N(CCCCN)CC(=O)N(CCCCN)CC(=O)N(CC(N)=O)[C@@H](C)c1ccccc1)[C@@H](C)c1ccccc1)[C@@H](C)c1ccccc1)[C@@H](C)c1ccccc1)[C@@H](C)c1ccccc1)c1ccccc1 [1B12 mer-Nlys4,10, H-(Nspe-Nlys-Nspe-Nlys-Nlys-Nspe)2-NH2] (H-[Nspe][Nlys][Nspe][Nlys][Nlys][Nspe][Nspe][Nlys][Nspe][Nlys][Nlys][Nspe]-NH2) | – | 50 | 83 | – | – | – | – | –
